SMILES strings stand for the structures. Some results are limits rather than exact numbers.

The target of assay [1] is Acetylcholinesterase (Electrophorus electricus, UniProt O42275).
The target of assay [2] is Acetylcholinesterase (Homo sapiens, UniProt P22303).
Description: Inhibition of human AChE by Ellman's assay
Another assay has as its target Cholinesterase (Equus caballus, UniProt P81908).

Sequence of Cholinesterase (P81908 whole entry): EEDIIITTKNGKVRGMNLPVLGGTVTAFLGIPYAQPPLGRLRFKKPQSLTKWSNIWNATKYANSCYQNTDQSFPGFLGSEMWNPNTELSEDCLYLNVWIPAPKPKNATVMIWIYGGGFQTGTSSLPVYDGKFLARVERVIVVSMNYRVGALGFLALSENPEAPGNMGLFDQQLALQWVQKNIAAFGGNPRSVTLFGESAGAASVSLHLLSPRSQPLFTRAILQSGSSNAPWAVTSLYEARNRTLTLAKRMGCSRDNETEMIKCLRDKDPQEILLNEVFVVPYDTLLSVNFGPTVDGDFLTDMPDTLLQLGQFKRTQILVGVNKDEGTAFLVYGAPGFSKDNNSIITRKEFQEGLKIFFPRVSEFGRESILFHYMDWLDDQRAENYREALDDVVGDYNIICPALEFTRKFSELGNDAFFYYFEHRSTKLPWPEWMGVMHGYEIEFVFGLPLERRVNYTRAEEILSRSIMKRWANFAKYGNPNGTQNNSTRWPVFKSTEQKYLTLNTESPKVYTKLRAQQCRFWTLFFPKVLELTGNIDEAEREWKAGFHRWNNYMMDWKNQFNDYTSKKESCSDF
Sequence of Acetylcholinesterase (Electrophorus electricus, UniProt O42275) (O42275 whole entry): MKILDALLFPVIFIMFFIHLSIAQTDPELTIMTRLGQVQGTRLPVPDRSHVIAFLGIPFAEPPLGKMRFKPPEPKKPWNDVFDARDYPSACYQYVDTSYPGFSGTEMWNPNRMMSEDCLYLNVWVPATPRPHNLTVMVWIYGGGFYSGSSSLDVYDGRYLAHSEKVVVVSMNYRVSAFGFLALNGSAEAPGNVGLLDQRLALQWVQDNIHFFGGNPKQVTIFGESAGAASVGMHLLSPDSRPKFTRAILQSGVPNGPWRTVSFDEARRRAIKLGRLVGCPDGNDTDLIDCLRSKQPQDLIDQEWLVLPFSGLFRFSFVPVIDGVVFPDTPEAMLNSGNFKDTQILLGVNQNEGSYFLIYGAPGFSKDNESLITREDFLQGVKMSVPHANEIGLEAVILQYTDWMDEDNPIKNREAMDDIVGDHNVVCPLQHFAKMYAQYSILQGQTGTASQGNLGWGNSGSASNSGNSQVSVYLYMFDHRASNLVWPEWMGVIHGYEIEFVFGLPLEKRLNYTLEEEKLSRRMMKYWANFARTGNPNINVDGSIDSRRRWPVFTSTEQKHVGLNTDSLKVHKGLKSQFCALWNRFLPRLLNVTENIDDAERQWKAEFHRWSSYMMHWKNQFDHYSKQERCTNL
Sequence of Acetylcholinesterase (Homo sapiens, UniProt P22303) (P22303 whole entry): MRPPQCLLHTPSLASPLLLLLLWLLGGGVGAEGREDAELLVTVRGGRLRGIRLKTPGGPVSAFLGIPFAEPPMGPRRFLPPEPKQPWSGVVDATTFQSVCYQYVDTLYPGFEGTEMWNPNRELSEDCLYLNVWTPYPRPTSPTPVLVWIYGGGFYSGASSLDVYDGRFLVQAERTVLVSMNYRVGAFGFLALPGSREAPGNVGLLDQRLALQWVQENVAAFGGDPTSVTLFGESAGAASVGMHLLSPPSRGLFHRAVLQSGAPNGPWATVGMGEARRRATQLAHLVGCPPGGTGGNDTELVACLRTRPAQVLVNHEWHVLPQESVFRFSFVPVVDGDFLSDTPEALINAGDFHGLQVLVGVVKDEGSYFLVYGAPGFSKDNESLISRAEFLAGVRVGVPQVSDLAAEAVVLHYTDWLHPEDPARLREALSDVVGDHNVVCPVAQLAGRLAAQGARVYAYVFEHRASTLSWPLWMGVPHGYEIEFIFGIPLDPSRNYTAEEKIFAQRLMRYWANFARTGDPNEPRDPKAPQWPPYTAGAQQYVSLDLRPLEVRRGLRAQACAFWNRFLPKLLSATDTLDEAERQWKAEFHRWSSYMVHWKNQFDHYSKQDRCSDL

With `COc1c(O)cc2c3c1-c1ccccc1C[C@H]3NCC2` [(-)-ASIMILOBINE], the IC50 at Acetylcholinesterase [1], against Acetylcholinesterase [2] and against Cholinesterase was greater than 100 µM in each case.
For `COc1ccc2c(=O)oc3c(OC)cc(CCN(C)C)c4c(=O)oc1c2c34` [TASPINE], the figures for the IC50 against Acetylcholinesterase [1], against Acetylcholinesterase [2] and on Cholinesterase were 0.33 µM, 0.54 µM and greater than 100 µM, respectively.

A word on the IC50: it is the concentration that gives 50% inhibition.

Source of the values: ChEMBL document CHEMBL1158060, “Taspine: bioactivity-guided isolation and molecular ligand-target insight of a potent acetylcholinesterase inhibitor from Magnolia x soulangiana” (J Nat Prod, 2006).
